In patent US9447083B2, “N-acylhydrazone derivatives for selective T cell inhibitor and anti-lymphoid malignancy drug” (CHONG KUN DANG PHARMACEUTICAL CORP., priority 2012, dated 2016):

System: Jurkat T cells
Test: Pro-apoptotic activity on Jurkat T cells (FITC-Annexin V / 7-AAD flow cytometry)
Assay type: cell-based
Conditions: Homo sapiens, 72 hours, cells stained with FITC-Annexin V and 7-AAD among total cells, read-out: Cell Apoptosis Effect to Jurkat T Cell (% in 5 μM)
Description: In order to investigate the effects of the prepared compounds, the apoptosis-inducing effects of the compounds on human T cell acute lymphoblastic leukemia cell line, Jurkat T cells, were evaluated in the following manner.
Jurkat T cells cultured in RPMI medium containing 10% fetal bovine serum (FBS) were collected and stained with trypan blue (Sigma). […] Then, the cells were centrifuged at 1200 rpm at room temperature for 5 minutes and re-suspended in 10% FBS-containing RPMI medium at a concentration of 1.5×10^5 cells/mL. 200 μL of the cell suspension was dispensed into each well of a flat bottom 96-well plate (Costar). Then, the cells were treated with 10 μL of the diluted compounds in RPMI medium at final concentrations of […] or 5 μM, and incubated in a 5% CO2 incubator at 37° C. for 72 hours. In a vehicle control group, the cells were treated with 10 μL of RPMI medium containing 1% of dimetylsulfoxide (DMSO, Sigma). The incubated cells were harvested, put into 5-mL FACS tubes (BD Falcon), washed with 1 mL of phosphate buffered saline (PBS), and then re-suspended in 0.1 mL of binding buffer (10 mM Hepes-NaOH, pH 7.4, 140 mM NaCl, […] CaCl2). The suspended cells were stained with fluorescein isothiocyanate (FITC)-Annexin V (BD Biosciences) and 7-amino-actinomycin D (7-AAD, e-Biosciences) at room temperature for 15 minutes. The stained cells were suspended in 0.3 mL of binding buffer and analyzed by a flow cytometer. Apoptosis was determined by the ratio (%) of cells stained with FITC-Annexin V and 7-AAD among the total cells (see Tables 10 and 11).

Row | Compound | cytotoxicity at 5 µM
1 | Cc1cc(N)cc(C)c1OCC(=O)N/N=C/c1cccc2[nH]ccc12 [Compound 232, (E)-N′-((1H-indol-4-yl)methylene)-2-(4-amino-2,6-dimethylphenoxy)acetohydrazide] | 100%
2 | Cc1cc(C)c(OCC(=O)N/N=C/c2cccc3[nH]cc(CN4CCC(C)CC4)c23)c(C)c1 [Compound 211] | 100%
3 | Cc1cc(CO)cc(C)c1OCC(=O)N/N=C/c1cccc2[nH]ccc12 [Compound 227, (E)-N′-((1H-indol-4-yl)methylene)-2-(4-(hydroxymethyl)-2,6-dimethylphenoxy)acetohydrazide] | 90%
4 | Cc1cc(CO)cc(C)c1OCC(=O)N/N=C/c1ccc2cc[nH]c2c1 [Compound 228, (E)-N′-((1H-indol-6-yl)methylene)-2-(4-(hydroxymethyl)-2,6-dimethylphenoxy)acetohydrazide] | 100%
5 | Cc1cc(-c2cccnc2)cc(C)c1OCC(=O)N/N=C/c1c[nH]c2ccccc12 [Compound 138] | 90%
6 | Cc1cc(C(N)=O)cc(C)c1OCC(=O)N/N=C/c1ccc2cc[nH]c2c1 [Compound 239] | 100%
7 | Cc1cc(C)c(OCC(=O)N/N=C/c2cccc3[nH]ccc23)c(-c2cccnc2)c1 [Compound 182, (E)-N′-((1H-indol-4-yl)methylene)-2-(2,4-dimethyl-6-(pyridin-3-yl)phenoxy)acetohydrazide] | 100%
8 | Cc1ccccc1OCC(=O)N/N=C/c1ccc2[nH]cnc2c1 [Compound 100] | 90%
9 | Cc1cc(Br)cc(C)c1OCC(=O)N/N=C/c1cccc2[nH]ccc12 [Compound 112, (E)-N′-((1H-indol-4-yl)methylene)-2-(4-bromo-2,6-dimethylphenoxy)acetohydrazide] | 100%
10 | Cc1ccnc(C)c1OCC(=O)N/N=C/c1cccc2[nH]ccc12 [Compound 190, (E)-N′-((1H-indol-4-yl)methylene)-2-(2,4-dimethylpyridin-3-yloxy)acetohydrazide] | 100%
11 | Cc1cccc(C)c1OCC(=O)N/N=C/c1ccc2cc[nH]c2c1 [Compound 258, (E)-N′-((1H-indol-6-yl)methylene)-2-(2,6-dimethylphenoxy)acetohydrazide] | 100%
12 | Cc1cc(Cl)cc(C)c1OCC(=O)N/N=C/c1ccc2cc[nH]c2c1 [Compound 157, (E)-N′-((1H-indol-6-yl)methylene)-2-(4-chloro-2,6-dimethylphenoxy)acetohydrazide] | 100%
13 | O=C(COc1ccccc1C(F)(F)F)N/N=C/c1cccc2[nH]ccc12 [Compound 192, (E)-N′-((1H-indol-4-yl)methylene)-2-(2-(trifluoromethyl)phenoxy)acetohydrazide] | 90%
14 | O=C(COc1ccccc1C(F)(F)F)N/N=C/c1ccc2cc[nH]c2c1 [Compound 194] | 100%
15 | Cc1cc(C)c(OCC(=O)N/N=C/c2ccc3[nH]cnc3c2)c(C)c1 [Compound 205] | 100%
16 | Cc1cccc(C)c1OCC(=O)N/N=C/c1cccc2[nH]ccc12 [Compound 118, (E)-N′-((1H-indol-4-yl)methylene)-2-(2,6-dimethylphenoxy)acetohydrazide] | 100%
17 | Cc1ccccc1OCC(=O)N/N=C/c1ccc2c(ccn2CN(C)C)c1 [Compound 072] | 95%
18 | Cc1cc(C)c(SCC(=O)N/N=C/c2ccc3cc[nH]c3c2)c(C)c1 [Compound 159, (E)-N′-((1H-indol-6-yl)methylene)-2-(mesitylthio)acetohydrazide] | 100%

Same assay, conditions: Homo sapiens, 72 hours, cells stained with FITC-Annexin V and 7-AAD among total cells, read-out: Jurkat T Cell Apoptosis (% in 5 μM)

Row | Compound | cytotoxicity at 5 µM
19 | Cc1cc(F)cc(C2CCOC2)c1OCC(=O)N(C)/N=C/c1ccc2ccn(C)c2c1 (stereo not shown) [Compound 380, (E)-2-(4-fluoro-2-methyl-6-(tetrahydrofuran-3-yl)phenoxy)-N-methyl-N′-((1-methyl-1H-indol-6-yl)methylene)acetohydrazide] | 100%
20 | Cc1ncccc1OCC(=O)N/N=C/c1ccc2cc[nH]c2c1 [Compound 304, (E)-N′-((1H-indol-6-yl)methylene)-2-((2-methylpyridin-3-yl)oxy)acetohydrazide] | 90%
21 | CCc1nc(C)ccc1OCC(=O)N/N=C/c1ccc2cc[nH]c2c1 [Compound 293, (E)-N′-((1H-indol-6-yl)methylene)-2-(2-ethyl-6-methylpyridin-3-yloxy)acetohydrazide] | 100%
22 | COc1ccc(OCC(=O)N/N=C/c2ccc3cc[nH]c3c2)c(-c2ccco2)c1 [Compound 347] | 100%
23 | O=C(COc1cccc(-c2ccco2)c1)N/N=C/c1cccc2[nH]ccc12 [Compound 356, (E)-N′-((1H-indol-4-yl)methylene)-2-(3-(furan-2-yl)phenoxy)acetohydrazide] | 90%
24 | Cc1ccccc1OCC(=O)N/N=C/c1ccc2cc[nH]c2c1 [Compound 279] | 100%
25 | Cc1cc(C)c(OCC(=O)N/N=C/c2cccc3c2ccn3S(=O)(=O)c2ccccc2)c(C)c1 [Compound 280, (E)-2-(mesityloxy)-N′-((1-(phenylsulfonyl)-1H-indol-4-yl)methylene)acetohydrazide] | 100%
26 | Cc1cc(-c2ccoc2)cc(C)c1OCC(=O)N/N=C/c1ccc2cc[nH]c2c1 [Compound 322, (E)-N′-((1H-indol-6-yl)methylene)-2-(4-(furan-3-yl)-2,6-dimethylphenoxy)acetohydrazide] | 100%
27 | Cc1cc(C2CCOC2)cc(C)c1OCC(=O)N/N=C/c1cccc2[nH]ccc12 (stereo not shown) [Compound 337, (E)-N′-((1H-indol-4-yl)methylene)-2-(2,6-dimethyl-4-(tetrahydrofuran-3-yl)phenoxy)acetohydrazide] | 100%
28 | Cc1cccc(C2CCOC2)c1OCC(=O)N/N=C/c1ccc2cc[nH]c2c1 (stereo not shown) [Compound 311, (E)-N′-((1H-indol-6-yl)methylene)-2-(2-methyl-6-(tetrahydrofuran-3-yl)phenoxy)acetohydrazide] | 100%
29 | Cc1cc(C)c(OCC(=O)N(C)/N=C/c2ccc3ccn(C)c3c2)c(C2CCOC2)c1 (stereo not shown) [Compound 375, (E)-2-(2,4-dimethyl-6-(tetrahydrofuran-3-yl)phenoxy)-N-methyl-N′-((1-methyl-1H-indol-6-yl)methylene)acetohydrazide] | 100%
30 | Cc1cc(OCC(=O)N/N=C/c2cccc3[nH]ccc23)cc(C)n1 [Compound 286, (E)-N′-((1H-indol-4-yl)methylene)-2-(2,6-dimethylpyridin-4-yloxy)acetohydrazide] | 100%
31 | O=C(COc1cccc(-c2cccnc2)c1)N/N=C/c1ccc2cc[nH]c2c1 [Compound 359] | 80%
32 | Cc1cc(C)c(OCC(=O)N/N=C/c2ccc3cc[nH]c3c2)c(C2CCCO2)c1 (stereo not shown) [Compound 332, (E)-N′-((1H-indol-6-yl)methylene)-2-(2,4-dimethyl-6-(tetrahydrofuran-2-yl)phenoxy)acetohydrazide] | 100%
33 | COc1ccc(OCC(=O)N/N=C/c2cccc3[nH]ccc23)c(-c2ccco2)c1 [Compound 346, (E)-N′-((1H-indol-4-yl)methylene)-2-(2-(furan-2-yl)-4-methoxyphenoxy)acetohydrazide] | 100%
34 | Cc1cc(C)c(OCC(=O)N/N=C/c2ccc3cc[nH]c3c2)c(-c2cccs2)c1 [Compound 345] | 95%
